Test results as given in BigSolDB 2.1.

N#Cc1ccc([N+](=O)[O-])cc1
solubility (mole fraction)
Conditions | 278.15 K | 283.15 K | 288.15 K | 293.15 K | 298.15 K | 303.15 K | 308.15 K | 313.15 K | 318.15 K
in ethanol | 0.00255 | 0.00302 | 0.00376 | 0.00454 | 0.00556 | 0.00672 | 0.00821 | 0.00984 | 0.0116
in ethyl acetate | 0.0404 | 0.0463 | 0.0538 | 0.0619 | 0.0721 | 0.0842 | 0.1 | 0.119 | 0.142
in isopropanol | 0.00162 | 0.00196 | 0.00246 | 0.00304 | 0.00374 | 0.0046 | 0.00572 | 0.00708 | 0.00877
in methanol | 0.0032 | 0.0037 | 0.00448 | 0.00541 | 0.00652 | 0.00788 | 0.00955 | 0.0115 | 0.0135
in n-propanol | 0.00227 | 0.00271 | 0.0033 | 0.00407 | 0.00505 | 0.00619 | 0.00758 | 0.00908 | 0.0108
